Where a name gives a salt, the structure may show the parent alone. Read-outs that look alike come from different tables or passages of the source.
Experiments:
[1] = target: PI 3-kinase alpha (Homo sapiens, UniProt P42336); experiment: Kinase Glo Luminescent Kinase Assay (Kglo), assay A; assay type: biochemical; settings: read-out: Assay A PI3Kα IC50
[2] = target: PI 3-kinase beta (Homo sapiens, UniProt P42338); experiment: Kinase Glo Luminescent Kinase Assay (Kglo), assay B; assay type: biochemical; settings: read-out: Assay B PI3Kβ IC50
[3] = target: Vps34 (Homo sapiens, UniProt Q8NEB9); experiment: Kinase Glo Luminescent Kinase Assay (Kglo), assay C; assay type: biochemical; settings: read-out: Assay C VPS34 IC50
[4] = target: PI 4-kinase beta (Homo sapiens, UniProt Q9UBF8); experiment: Kinase Glo Luminescent Kinase Assay (Kglo), assay D; assay type: biochemical; settings: read-out: Assay D PI4Kβ IC50
[5] = target: PI 3-kinase gamma (Homo sapiens, UniProt P48736); experiment: TR-FRET Adapta assay, assay E; assay type: biochemical; settings: read-out: Assay E PI3Kγ IC50
[6] = target: mTOR (Homo sapiens, UniProt P42345); experiment: Lanthascreen kinase binding assay, assay G; settings: read-out: Assay G mTOR IC50
Method: Lanthascreen™ Kinase Binding Assay for mTOR (G)
Binding of an inhibitor to the kinase competes for binding with the tracer, resulting in a loss of FRET.
50 nL of compound dilutions were dispensed onto white 384-well small volume polystyrene plate.

[7] = tested on: IL-8-induced neutrophil shape change in human whole blood; experiment: Whole blood neutrophil shape change assay (L); assay type: cell-based; settings: IL-8, human whole blood, read-out: Assay L WBSC IC50
Method: Whole Blood Neutrophil Shape Change Assay (L)
IL-8 was made up to 2 μM stocks in 0.1% bovine serum albumin/PBS and stored at −80° C. On the day IL-8 was diluted in PBS (phosphate buffered saline) 10 minutes before use. IL-8 was used at final concentration of 2 nM and a concentration range from 0.003 to 200 nM for the donor dose response curve.
Assay fixative solution was prepared fresh each day from 10× concentrated CellFIX™ solution diluted 1:10 in sterile distilled water and then 1:4 with PBS. Assay fixative solution was kept on ice prior to use.
A 10× lysis buffer was prepared in advance by dissolving 20.75 g NH4Cl and 2.5 g KHCO3 in 250 ml sterile H2O. This 10× lysis buffer was filtered under sterile conditions and stored for up to two weeks at 4° C. On the day a 1× lysis solution was prepared with sterile distilled H2O and kept on ice prior to use.
The test compounds were prepared as 10 mM stock solutions in 100% DMSO and were stored at 4° C. Once in use for an assay 10 mM stock compounds were thawed and stored at RT protected from light. Compound dilutions were prepared fresh on the day. The first series of dilutions in 100% DMSO were done first thing in the morning. Only once blood had been collected and arrived in laboratory was the next set of dilutions into PBS carried out (1:10 PBS, 10% DMSO). This limited the exposure of diluted compound to plastic and made sure the exposure timing was consistent between assays.
Compound dilutions in 100% DMSO were prepared as described previously. Human whole blood was collected in K2 EDTA Vacutainers. Once blood was in the laboratory, compound dilutions into PBS were carried out as described previously and depicted in Table 1.
The outer wells of the deep well assay plate were filled with 1200 μl of sterile distilled H2O in an effort to limit edge effects (rows A1-H1, A1-A12, A12-H12).
An IL-8 dose response was determined for each blood donor examined, to monitor the donor response to IL-8. At this step in assay preparation for the IL-8 dose response samples 10 μl of PBS was added to designated wells. In addition the assay window without DMSO was also assessed each day. For such samples at this step in assay preparation 10 μl of PBS was added in the place of 10% DMSO.
Lids were placed on the 96 well plates and samples were incubated for 15 minutes at 37° C. in a water-bath.
Following the compound pre-incubation 10× final IL-8 was added to appropriate wells (10 μl of 20 nM working stock IL-8, final IL-8 concentration in blood=2 nM) and 10 μl of PBS was added to the un-stimulated controls. 10× final dose response range IL-8 was also added to designated wells (final concentration range on assay plate was 200 nM to 0.0005 nM, 1:5 serial dilution in PBS). The IL-8 and PBS were added to appropriate wells across all assay plates in the same sequence as the blood to compound addition. […] Samples were incubated for 5 minutes at 37° C. in a water-bath. Following the incubation sample plates were transferred to ice where 250 μl of chilled Assay Fixative Buffer was added promptly to all wells.
Samples were incubated on ice for 7 minutes (no mixing). […] Once added samples were mixed once and incubated on ice for 30 minutes to achieve uniform red blood cells lysis. After lysis, 200 μl of sample was transferred to a 96 well microplate on ice. […] Granulocytes were identified based on differential side scatter (SSC) and forward scatter (FSC) characteristics.

[8] = target: PI 3-kinase delta (Homo sapiens, UniProt O00329); experiment: TR-FRET Adapta assay, assay F; settings: read-out: Assay F PI3Kδ IC50
[9] = Microsomal clearance assay (M); settings: intrinsic clearance in rat liver microsomes
Method: The experiments were performed in 96-well glass plates at 37° C. on an automated Tecan EVO platform. Test compounds at a concentration of 10 mM in pure DMSO were diluted 1:1000 in water to 10 μM. […] Reactions were initiated by the addition of 150 μL of a cofactor solution containing 2 mM NADPH.

Sequence of PI 3-kinase beta (P42338 whole entry): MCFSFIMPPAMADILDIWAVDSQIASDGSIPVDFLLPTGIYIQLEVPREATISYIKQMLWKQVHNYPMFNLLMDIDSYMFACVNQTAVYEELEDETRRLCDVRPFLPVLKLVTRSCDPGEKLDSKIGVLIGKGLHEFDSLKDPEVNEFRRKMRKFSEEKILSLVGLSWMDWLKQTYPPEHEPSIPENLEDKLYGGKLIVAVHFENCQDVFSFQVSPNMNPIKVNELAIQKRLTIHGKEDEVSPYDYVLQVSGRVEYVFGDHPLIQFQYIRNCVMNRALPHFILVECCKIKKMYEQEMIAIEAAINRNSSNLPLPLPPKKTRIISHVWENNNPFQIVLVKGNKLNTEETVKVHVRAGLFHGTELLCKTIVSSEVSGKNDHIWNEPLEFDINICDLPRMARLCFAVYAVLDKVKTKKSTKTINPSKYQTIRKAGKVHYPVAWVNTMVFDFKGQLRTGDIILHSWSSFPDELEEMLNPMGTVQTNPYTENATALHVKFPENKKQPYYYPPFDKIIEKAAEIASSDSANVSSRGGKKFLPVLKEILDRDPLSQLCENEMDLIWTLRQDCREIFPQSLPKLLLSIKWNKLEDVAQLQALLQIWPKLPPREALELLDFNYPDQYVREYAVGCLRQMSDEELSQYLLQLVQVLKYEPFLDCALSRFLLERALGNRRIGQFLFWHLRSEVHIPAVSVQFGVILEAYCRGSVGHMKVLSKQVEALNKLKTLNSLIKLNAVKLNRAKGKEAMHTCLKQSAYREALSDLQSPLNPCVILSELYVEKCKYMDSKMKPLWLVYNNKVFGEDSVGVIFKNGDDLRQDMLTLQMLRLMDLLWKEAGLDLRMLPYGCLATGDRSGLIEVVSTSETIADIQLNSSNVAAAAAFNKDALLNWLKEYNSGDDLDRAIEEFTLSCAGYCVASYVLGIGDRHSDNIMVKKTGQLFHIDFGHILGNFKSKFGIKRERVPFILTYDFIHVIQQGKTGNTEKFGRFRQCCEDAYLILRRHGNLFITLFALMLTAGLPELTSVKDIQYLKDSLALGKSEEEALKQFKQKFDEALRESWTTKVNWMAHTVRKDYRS
Sequence of PI 3-kinase beta (P27986 461-568 partner): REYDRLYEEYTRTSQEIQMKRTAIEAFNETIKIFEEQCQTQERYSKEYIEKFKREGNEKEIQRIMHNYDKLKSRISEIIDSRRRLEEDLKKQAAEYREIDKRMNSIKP
Sequence of PI 3-kinase alpha (P42336 whole entry): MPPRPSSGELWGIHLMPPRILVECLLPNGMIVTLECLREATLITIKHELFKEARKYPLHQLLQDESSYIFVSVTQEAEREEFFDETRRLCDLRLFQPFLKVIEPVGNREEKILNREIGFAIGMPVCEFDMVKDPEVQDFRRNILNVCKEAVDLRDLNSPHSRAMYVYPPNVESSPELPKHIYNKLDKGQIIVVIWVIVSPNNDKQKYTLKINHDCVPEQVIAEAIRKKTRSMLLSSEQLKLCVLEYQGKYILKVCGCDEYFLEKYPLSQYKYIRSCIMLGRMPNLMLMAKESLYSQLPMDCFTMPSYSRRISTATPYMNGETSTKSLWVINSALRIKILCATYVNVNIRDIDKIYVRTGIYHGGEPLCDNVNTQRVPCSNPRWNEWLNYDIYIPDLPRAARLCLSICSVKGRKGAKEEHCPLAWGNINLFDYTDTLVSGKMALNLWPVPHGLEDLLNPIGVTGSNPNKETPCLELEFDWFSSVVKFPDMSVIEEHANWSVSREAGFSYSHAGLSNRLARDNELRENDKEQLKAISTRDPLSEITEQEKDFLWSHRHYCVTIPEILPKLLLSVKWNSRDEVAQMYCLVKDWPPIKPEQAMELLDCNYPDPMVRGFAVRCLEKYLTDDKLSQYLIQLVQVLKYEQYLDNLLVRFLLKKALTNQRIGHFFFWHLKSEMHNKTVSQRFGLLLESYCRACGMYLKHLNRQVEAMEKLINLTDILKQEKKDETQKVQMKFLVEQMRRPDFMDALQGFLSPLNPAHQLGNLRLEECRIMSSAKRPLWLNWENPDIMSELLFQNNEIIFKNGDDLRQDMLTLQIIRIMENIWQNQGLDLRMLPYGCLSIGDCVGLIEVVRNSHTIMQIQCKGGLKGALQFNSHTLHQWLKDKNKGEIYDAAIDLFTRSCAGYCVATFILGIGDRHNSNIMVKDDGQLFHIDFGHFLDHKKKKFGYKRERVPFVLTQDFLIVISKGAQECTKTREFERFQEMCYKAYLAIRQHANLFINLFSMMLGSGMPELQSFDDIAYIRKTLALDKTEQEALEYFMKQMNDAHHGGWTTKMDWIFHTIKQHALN
Sequence of PI 4-kinase beta (Q9UBF8 whole entry): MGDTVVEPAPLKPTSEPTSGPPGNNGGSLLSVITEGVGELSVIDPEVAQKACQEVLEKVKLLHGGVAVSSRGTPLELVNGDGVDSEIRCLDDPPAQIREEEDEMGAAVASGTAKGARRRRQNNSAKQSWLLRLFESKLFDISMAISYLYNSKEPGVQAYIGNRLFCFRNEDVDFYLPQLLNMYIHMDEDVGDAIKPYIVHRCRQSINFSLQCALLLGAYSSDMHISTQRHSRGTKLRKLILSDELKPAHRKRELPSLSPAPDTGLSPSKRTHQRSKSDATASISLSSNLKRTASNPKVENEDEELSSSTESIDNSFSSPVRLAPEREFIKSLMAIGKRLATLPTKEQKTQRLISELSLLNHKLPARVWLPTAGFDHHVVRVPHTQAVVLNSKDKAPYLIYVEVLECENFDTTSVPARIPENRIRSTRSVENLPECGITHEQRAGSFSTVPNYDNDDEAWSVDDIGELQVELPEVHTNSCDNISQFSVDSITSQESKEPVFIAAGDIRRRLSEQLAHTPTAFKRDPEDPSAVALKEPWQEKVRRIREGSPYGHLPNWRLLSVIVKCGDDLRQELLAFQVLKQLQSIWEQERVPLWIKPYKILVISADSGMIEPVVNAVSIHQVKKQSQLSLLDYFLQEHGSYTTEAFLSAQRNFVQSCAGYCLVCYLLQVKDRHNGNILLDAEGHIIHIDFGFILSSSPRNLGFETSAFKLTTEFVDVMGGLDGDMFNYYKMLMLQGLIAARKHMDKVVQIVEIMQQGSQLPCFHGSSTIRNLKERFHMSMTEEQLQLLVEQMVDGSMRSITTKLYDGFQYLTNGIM
Sequence of Vps34 (Q8NEB9 whole entry, species assumed): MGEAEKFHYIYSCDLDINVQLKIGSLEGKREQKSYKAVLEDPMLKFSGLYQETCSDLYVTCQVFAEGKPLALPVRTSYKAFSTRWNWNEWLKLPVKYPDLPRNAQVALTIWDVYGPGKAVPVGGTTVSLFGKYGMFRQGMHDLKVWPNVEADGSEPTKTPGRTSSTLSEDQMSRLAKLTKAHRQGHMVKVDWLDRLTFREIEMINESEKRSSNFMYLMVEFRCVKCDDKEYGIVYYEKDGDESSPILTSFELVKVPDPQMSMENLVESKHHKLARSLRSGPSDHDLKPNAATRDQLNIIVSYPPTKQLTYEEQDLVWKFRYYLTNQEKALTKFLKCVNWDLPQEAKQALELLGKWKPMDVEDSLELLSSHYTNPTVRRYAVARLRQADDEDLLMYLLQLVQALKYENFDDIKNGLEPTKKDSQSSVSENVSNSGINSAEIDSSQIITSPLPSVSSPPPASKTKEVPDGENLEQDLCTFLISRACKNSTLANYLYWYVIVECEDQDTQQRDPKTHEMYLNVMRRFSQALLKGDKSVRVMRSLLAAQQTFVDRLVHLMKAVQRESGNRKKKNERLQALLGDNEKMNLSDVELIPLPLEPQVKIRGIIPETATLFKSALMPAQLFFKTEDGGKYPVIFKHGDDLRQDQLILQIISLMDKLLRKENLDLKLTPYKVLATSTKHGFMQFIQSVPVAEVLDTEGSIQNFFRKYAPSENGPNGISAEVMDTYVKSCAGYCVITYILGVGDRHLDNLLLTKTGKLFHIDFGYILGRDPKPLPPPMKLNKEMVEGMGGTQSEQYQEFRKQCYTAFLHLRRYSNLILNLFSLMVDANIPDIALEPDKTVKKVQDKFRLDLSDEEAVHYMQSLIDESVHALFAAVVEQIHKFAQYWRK
Sequence of PI 3-kinase delta (O00329 whole entry): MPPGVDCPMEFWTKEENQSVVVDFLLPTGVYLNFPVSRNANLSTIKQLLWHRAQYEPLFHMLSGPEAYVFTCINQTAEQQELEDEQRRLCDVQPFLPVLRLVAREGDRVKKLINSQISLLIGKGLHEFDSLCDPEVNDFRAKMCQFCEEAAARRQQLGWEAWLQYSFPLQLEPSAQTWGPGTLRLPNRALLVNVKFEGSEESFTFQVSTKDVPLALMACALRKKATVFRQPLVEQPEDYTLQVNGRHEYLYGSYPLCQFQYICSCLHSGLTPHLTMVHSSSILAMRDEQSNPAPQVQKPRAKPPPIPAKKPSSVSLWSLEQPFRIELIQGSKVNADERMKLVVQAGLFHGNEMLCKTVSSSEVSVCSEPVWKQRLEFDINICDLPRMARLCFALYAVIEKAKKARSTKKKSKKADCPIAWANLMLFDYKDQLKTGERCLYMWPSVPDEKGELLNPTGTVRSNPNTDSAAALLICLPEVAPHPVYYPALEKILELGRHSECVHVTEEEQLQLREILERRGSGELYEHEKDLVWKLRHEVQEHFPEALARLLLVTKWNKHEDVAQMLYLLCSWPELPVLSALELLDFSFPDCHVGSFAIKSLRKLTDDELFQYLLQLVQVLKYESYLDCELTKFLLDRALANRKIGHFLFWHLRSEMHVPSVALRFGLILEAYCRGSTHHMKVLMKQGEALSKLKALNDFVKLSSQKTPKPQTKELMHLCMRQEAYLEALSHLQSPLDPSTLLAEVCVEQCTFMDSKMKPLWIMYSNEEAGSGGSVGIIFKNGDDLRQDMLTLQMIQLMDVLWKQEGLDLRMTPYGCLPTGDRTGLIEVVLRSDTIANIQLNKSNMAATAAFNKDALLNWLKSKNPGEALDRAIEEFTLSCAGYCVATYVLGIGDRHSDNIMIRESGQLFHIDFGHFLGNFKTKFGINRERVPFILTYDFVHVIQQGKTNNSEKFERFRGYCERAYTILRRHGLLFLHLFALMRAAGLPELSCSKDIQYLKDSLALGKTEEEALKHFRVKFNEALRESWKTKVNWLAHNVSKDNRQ
Sequence of PI 3-kinase delta (P27986 461-568 partner): as the sequence (P27986 461-568 partner) above

| SMILES | IC50 [1] [µM] | IC50 [2] [µM] | IC50 [3] [µM] | IC50 [4] [µM] | IC50 [5] [µM] | IC50 [6] [µM] | IC50 ([7]; Homo sapiens, Neutrophil) [µM] | IC50 [8] [µM] | Assay M RLM CI(int) [9] [µL/min/mg] | IC50 [7] [µM] |
| --- | --- | --- | --- | --- | --- | --- | --- | --- | --- | --- |
| Cc1ccc(S(=O)(=O)NCC[C@@H](O)C(F)(F)F)cc1-c1cnc(N)c(-c2cn(C)nc2C)n1 (single isomer, unassigned) [Example 52a, (R)-3-(5-Amino-6-(1,3-dimethyl-1H-pyrazol-4-yl)pyrazin-2-yl)-4-methyl-N-(4,4,4-trifluoro-3-hydroxybutyl)benzenesulfonamide or (S)-3-(5-Amino-6-(1,3-dimethyl-1H-pyrazol-4-yl)pyrazin-2-yl)-4-methyl-N-(4,4,4-trifluoro-3-hydroxybutyl)benzenesulfonamide] | 0.17 | – | > 10 | 5.5 | 0.016 | – | – | – | 60 | 0.806 |
| Cc1cc(-c2nc(-c3cc(S(=O)(=O)NCCC(C)(C)O)ccc3C)cnc2N)on1 [Example 89, 3-(5-Amino-6-(3-methylisoxazol-5-yl)pyrazin-2-yl)-N-(3-hydroxy-3-methylbutyl)-4-methylbenzenesulfonamide] | 0.42 | 1.3 | 3.4 | 7 | – | > 10 | 3.7 | 0.84 | 46 | – |
| Cc1ccc(S(=O)(=O)NCC(F)(F)F)cc1-c1cnc(N)c(-n2cncn2)n1 [Example 127, 3-(5-Amino-6-(1H-1,2,4-triazol-1-yl)pyrazin-2-yl)-4-methyl-N-(2,2,2-trifluoroethyl)benzenesulfonamide] | 0.3 | 1.1 | > 10 | 4.4 | 0.024 | 2.6 | 1.5 | 0.88 | – | – |
| Cc1ccc(S(=O)(=O)NCC(C)(C)O)cc1-c1cnc(N)c(-n2cc(C)c(C)n2)n1 [Example 47, 3-(5-Amino-6-(3,4-dimethyl-1H-pyrazol-1-yl)pyrazin-2-yl)-N-(2-hydroxy-2-methylpropyl)-4-methyl benzenesulfonamide] | 0.33 | 6 | > 10 | 8.7 | 0.049 | > 10 | 3.14 | 0.53 | 140 | – |
| Cc1ccc(S(=O)(=O)NCC(C)(C)O)cc1-c1cnc(N)c(-c2nc(C(C)C)no2)n1 [Example 97, 3-(5-Amino-6-(3-isopropyl-1,2,4-oxadiazol-5-yl)pyrazin-2-yl)-N-(2-hydroxy-2-methylpropyl)-4-methylbenzenesulfonamide] | – | – | > 10 | > 10 | – | > 10 | 2.15 | – | 60 | – |
| Cc1noc(-c2nc(-c3cc(S(=O)(=O)NCC(C)(C)CO)ccc3C)cnc2N)n1 [Example 92, 3-(5-Amino-6-(3-methyl-1,2,4-oxadiazol-5-yl)pyrazin-2-yl)-N-(3-hydroxy-2,2-dimethylpropyl)-4-methylbenzenesulfonamide] | 1.4 | 8.2 | > 9.1 | > 9.1 | 0.073 | > 9.1 | 1.16 | 0.69 | 64 | – |
| Cc1ccc(S(=O)(=O)NCC2(O)CCOCC2)cc1-c1cnc(N)c(-n2cncn2)n1 [Example 32, 3-(5-Amino-6-[1,2,4]triazol-1-yl-pyrazin-2-yl)-N-(4-hydroxy-tetrahydropyran-4-ylmethyl)-4-methylbenzenesulfonamide] | – | – | > 10 | 4.05 | – | > 10 | 0.668 | – | 28 | – |
| Cc1ncc(-c2nc(-c3cc(S(=O)(=O)NCC4COC4)ccc3C)cnc2N)s1 [Example 45.1, 3-(5-Amino-6-(2-methylthiazol-5-yl)pyrazin-2-yl)-4-methyl-N-(oxetan-3-ylmethyl)benzenesulfonamide] | 0.05 | 0.2 | 1.9 | 3 | 0.011 | – | 0.306 | 0.08 | 70 | – |

Further lines, with some results ahead:

| IC50 [1] [µM] | IC50 [2] [µM] | IC50 [3] [µM] | IC50 [4] [µM] | IC50 [5] [µM] | IC50 [6] [µM] | IC50 ([7]; Homo sapiens, Neutrophil) [µM] | IC50 [8] [µM] | Assay M RLM CI(int) [9] [µL/min/mg] | SMILES | IC50 [7] [µM] |
| --- | --- | --- | --- | --- | --- | --- | --- | --- | --- | --- |
| 0.48 | 2 | > 10 | 6.2 | 0.054 | 9.7 | 0.597 | 0.73 | 49 | Cc1ccc(S(=O)(=O)NCC(C)(C)O)cc1-c1cnc(N)c(-c2cnn(C)c2)n1 [Example 46.2, 3-(5-Amino-6-(1-methyl-1H-pyrazol-4-yl)pyrazin-2-yl)-N-(2-hydroxy-2-methylpropyl)-4-methylbenzenesulfonamide] | – |
| 0.28 | 4.3 | > 9.1 | 7 | 0.022 | 6.1 | 2.42 | 1.2 | 130 | Cc1cc(-c2nc(-c3cc(S(=O)(=O)NC4CC(F)(F)C4)ccc3C)cnc2N)ccn1 [Example 129.2, 3-(5-amino-6-(2-methylpyridin-4-yl)pyrazin-2-yl)-N-(3,3-difluorocyclobutyl)-4-methylbenzenesulfonamide] | – |
| 1.4 | 2.3 | > 10 | > 10 | 0.1 | 9.3 | 6.29 | 2.1 | – | Cc1ccc(S(=O)(=O)NC[C@@H]2CCC(C)(C)O2)cc1-c1cnc(N)c(-n2cncn2)n1 [Example 127.39] | – |
| 0.19 | 6.3 | > 9.1 | 6.5 | 0.023 | 6.3 | 0.721 | 0.25 | – | Cc1cc(-c2nc(-c3cc(S(=O)(=O)NC4CCC(CO)CC4)ccc3C)cnc2N)ccn1 (centres unmarked) [Example 129.1, 3-(5-amino-6-(2-methylpyridin-4-yl)pyrazin-2-yl)-N-(4-(hydroxymethyl)cyclohexyl)-4-methylbenzenesulfonamide] | – |
| 1.3 | 1.3 | > 10 | > 10 | 0.042 | 1.2 | 23.6 | 0.46 | – | Cc1ccc(S(=O)(=O)NC[C@H]2CCNC2)cc1-c1cnc(N)c(-n2cncn2)n1 [Example 127.58, (S)-3-(5-amino-6-(1H-1,2,4-triazol-1-yl)pyrazin-2-yl)-4-methyl-N-(pyrrolidin-3-ylmethyl)benzenesulfonamide trifluoroacetic acid salt] | – |
| 0.18 | 1.1 | > 10 | 2.6 | 0.032 | 1.8 | > 100 | 1.1 | – | Cc1ccc(S(=O)(=O)NC2CCC2)cc1-c1cnc(N)c(-n2cncn2)n1 [Example 127.54] | – |
| 0.26 | 1.3 | > 10 | 6.3 | 0.04 | 1.5 | 3.99 | 1.1 | – | Cc1ccc(S(=O)(=O)NC2CC(F)(F)C2)cc1-c1cnc(N)c(-n2cncn2)n1 [Example 127.7] | – |
| 2.9 | > 9.1 | > 9.1 | > 9.1 | 0.053 | > 9.1 | 8.95 | 1 | – | Cc1cc(-c2nc(-c3cc(S(=O)(=O)NC4CCN(C(C)C)CC4)ccc3C)cnc2N)ccn1 [Example 129.21, 3-(5-amino-6-(2-methylpyridin-4-yl)pyrazin-2-yl)-N-(1-isopropylpiperidin-4-yl)-4-methylbenzenesulfonamide] | – |
| 0.57 | 2 | > 10 | 5.2 | 0.15 | 5.9 | 1.79 | 0.23 | – | Cc1ccc(S(=O)(=O)NC[C@@H]2CCOC2)cc1-c1cnc(N)c(-n2cncn2)n1 [Example 127.26] | – |
| 0.54 | 2.3 | > 9.1 | > 9.1 | 0.042 | > 9.1 | 2.95 | 0.38 | – | CCN1CCC[C@@H]1CNS(=O)(=O)c1ccc(C)c(-c2cnc(N)c(-c3ccnc(C)c3)n2)c1 [Example 129.25, (R)-3-(5-amino-6-(2-methylpyridin-4-yl)pyrazin-2-yl)-N-((1-ethylpyrrolidin-2-yl)methyl)-4-methylbenzenesulfonamide] | – |
| 0.27 | > 9.1 | > 9.1 | 5 | 0.038 | 6.5 | 1.17 | 0.57 | 79 | Cc1cc(-c2nc(-c3cc(S(=O)(=O)NCC4(O)CCC4)ccc3C)cnc2N)ccn1 [Example 129.5, 3-(5-amino-6-(2-methylpyridin-4-yl)pyrazin-2-yl)-N-((1-hydroxycyclobutyl)methyl)-4-methylbenzenesulfonamide] | – |

Source: patent US10004732B2 (Novartis AG, priority 2014, dated 2018)
